Assay results reported in patent US20060235222A1, “Indole-derivative modulators of steroid hormone nuclear receptors” (ELI LILLY AND COMPANY, priority 2003, published 2006).

What was measured:
glucocorticoid receptor = biological target: T1, glucocorticoid receptor (Homo sapiens, UniProt P04150); assay: Glucocorticoid Receptor Binding Assay (Method 1), [3H]-dexamethasone competition, A549 cell extract; settings: 1.86 nM [3H]-dexamethasone, read-out: GR Ki (nM) Method 1
T1 construct: containing 50-200 ug of A549 cell extract and 1.86 nM; host or cells: A549 human lung epithelial cells
T1 sequence (P04150 1-777): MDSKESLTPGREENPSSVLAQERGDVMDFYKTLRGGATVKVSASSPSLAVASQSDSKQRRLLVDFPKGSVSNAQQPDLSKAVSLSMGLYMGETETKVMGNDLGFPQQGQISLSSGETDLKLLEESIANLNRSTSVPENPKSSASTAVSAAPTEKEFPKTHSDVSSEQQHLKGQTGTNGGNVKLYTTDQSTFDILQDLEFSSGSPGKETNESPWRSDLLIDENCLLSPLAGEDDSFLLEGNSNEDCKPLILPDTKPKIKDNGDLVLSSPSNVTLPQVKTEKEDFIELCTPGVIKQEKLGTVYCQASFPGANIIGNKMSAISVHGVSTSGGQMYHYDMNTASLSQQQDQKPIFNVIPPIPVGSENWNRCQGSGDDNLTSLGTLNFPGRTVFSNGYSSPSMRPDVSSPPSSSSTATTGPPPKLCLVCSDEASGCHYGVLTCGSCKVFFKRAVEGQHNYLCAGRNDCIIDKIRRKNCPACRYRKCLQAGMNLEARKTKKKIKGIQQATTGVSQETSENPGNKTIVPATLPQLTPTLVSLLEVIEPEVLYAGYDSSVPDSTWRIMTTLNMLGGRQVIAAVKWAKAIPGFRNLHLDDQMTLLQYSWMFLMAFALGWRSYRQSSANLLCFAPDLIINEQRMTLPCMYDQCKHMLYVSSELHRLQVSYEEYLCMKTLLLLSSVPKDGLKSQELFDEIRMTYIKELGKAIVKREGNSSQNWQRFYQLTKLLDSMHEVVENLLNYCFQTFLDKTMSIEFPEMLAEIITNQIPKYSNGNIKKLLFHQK
Method: Glucocorticoid Receptor Binding Assay (Method 1):
A549 human lung epithelial cells (ATCC) are grown at a scale where gram quantity cell pellets are obtained. Harvested cell pellets are washed twice in cold phosphate buffered saline, centrifuged, and resuspended in cold assay binding buffer. The assay binding buffer consists of 10% glycerol, 50 mM Tris-HCl (pH7.2), 75 mM sodium chloride, 1.5 mM magnesium chloride, 1.5 mM EDTA, and 10 mM sodium molybdate. Cell suspensions were lysed via sonication, centrifuged, and the “extract” supernatant is snap frozen and stored at −80 C until needed.
Incubations are carried out at 4 degrees Celsius for 16 hours. After incubation, 70 ul of 3× dextran-coated charcoal solution is added to each reaction, mixed, and incubated for 8 minutes at RT. 3×-dextran-coated charcoal solution consists of 250 ml assay binding buffer, 3.75 g Norit A charcoal (Sigma), and 1.25 g dextran T-70 (Amersham). Charcoal/unbound radioligand complexes are removed by centrifugation of the plate and 140 ul of supernatant from each well is transferred to another 96 well Optiplate (Packard Instruments). 200 ul of Microscint-20 scinillant (Packard Instruments) is added to each well and amount of receptor bound radioligand is determined using Packard Instruments TopCount instrument.

human MR = biological target: T2, human MR (Homo sapiens, UniProt P08235); assay: Mineralocorticoid Receptor Binding Assay (Method 1), [3H]-aldosterone competition; settings: 0.5 nM [3H]-aldosterone, human MR expressed in Sf9 cells
T2 construct: The full length human MR gene is cloned from a human kidney or human brain cDNA library; inferred from own knowledge of the pAcHLT vector (N); made in house; host or cells: Sf9 insect cells (baculovirus)
T2 sequence (P08235 1-984): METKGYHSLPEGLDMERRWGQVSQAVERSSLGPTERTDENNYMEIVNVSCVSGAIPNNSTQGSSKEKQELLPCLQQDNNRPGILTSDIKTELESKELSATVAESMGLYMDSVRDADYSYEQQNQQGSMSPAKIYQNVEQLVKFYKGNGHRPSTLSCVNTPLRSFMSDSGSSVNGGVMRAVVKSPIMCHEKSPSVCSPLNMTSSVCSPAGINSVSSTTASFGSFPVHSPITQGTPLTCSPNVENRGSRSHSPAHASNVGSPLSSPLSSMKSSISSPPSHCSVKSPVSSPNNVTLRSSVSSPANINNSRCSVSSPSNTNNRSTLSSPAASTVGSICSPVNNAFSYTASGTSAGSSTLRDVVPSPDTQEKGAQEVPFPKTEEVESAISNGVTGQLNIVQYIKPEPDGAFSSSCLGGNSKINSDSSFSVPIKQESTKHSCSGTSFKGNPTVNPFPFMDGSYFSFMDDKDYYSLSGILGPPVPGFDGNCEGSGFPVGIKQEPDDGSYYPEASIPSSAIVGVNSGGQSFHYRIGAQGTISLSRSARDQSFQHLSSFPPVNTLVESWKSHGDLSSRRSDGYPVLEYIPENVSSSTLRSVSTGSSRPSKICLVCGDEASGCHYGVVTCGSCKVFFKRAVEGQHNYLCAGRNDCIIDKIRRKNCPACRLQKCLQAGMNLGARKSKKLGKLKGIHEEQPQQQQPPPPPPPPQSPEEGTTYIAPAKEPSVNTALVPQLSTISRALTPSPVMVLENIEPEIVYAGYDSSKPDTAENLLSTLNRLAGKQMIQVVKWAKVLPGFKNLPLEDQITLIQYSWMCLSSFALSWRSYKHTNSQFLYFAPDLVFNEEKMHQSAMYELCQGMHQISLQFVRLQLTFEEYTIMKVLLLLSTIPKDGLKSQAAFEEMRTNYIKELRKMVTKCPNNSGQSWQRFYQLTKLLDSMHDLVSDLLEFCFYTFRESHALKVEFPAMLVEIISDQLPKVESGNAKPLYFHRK
Method: Mineralocorticoid Receptor Binding Assay (Method 1):
The full length human MR gene is cloned from a human kidney or human brain cDNA library. […] The PCR reaction is performed in a final volume of 50 μl containing about 1 μl of a 50× stock solution of polymerase; about 1 μl of a 50× stock solution of dNTP; about 5 μl of an appropriate PCR buffer; about 1 μl of each primer; about 5 μl of a H. kidney or H. brain cDNA library; and about 36 μl of water. The reaction is allowed to denature for about 30 seconds at 95 degrees Celsius, anneal for about 30 seconds at 55 degrees Celsius, and extend for about 5 minutes at 72 degrees Celsius, the sequence being repeated for a total of about 35 cycles. […] To extract the cDNA product from the agarose gel, the QIAEX II Gel Extraction protocol (QIAGEN, Inc.) is employed according to the manufacturer's instructions. Following extraction, the MR cDNA is cloned into an appropriate cloning vector (Zero Blunt TOPO PCR Cloning Kit (Invitrogen, Inc.) and a pAcHLT-baculovirus transfer vector (B.D./Pharminogen), then expressed in SF9 insect cells, essentially according to manufacturer's instructions. Sf9 cells are grown at a scale where gram quantity cell pellets are obtained for subsequent use in the MR binding assay. Harvested cell pellets are lysed by repeated freeze-thaw cycles (about 4) in a suitable lysis buffer then centrifuged at about 1×10^3 G (with the supernatant being saved for future assays).
MR binding assays are performed in a final total volume of about 250 μl containing about 20-25 μg of protein and 0.5 nM of [^3H]-aldosterone plus varying concentrations of test compound or vehicle. The assay binding buffer consists of 30 mM sodium molybdate, 30 mM of TRIS-HCl, 5 mM sodium phosphate, 5 mM sodium pyrophosphate, and about 10% glycerol, pH=7.5.
Incubations are carried out at 4 degrees Celsius with shaking for about 16 hours. 200 μl aliquots of each incubation are filtered onto Millipore HA 0.45 micron 96-well filter plates, pre-moistened with cold 30 mM TRIS-HCl. The filter plates are suctioned dry with vacuum and immediately washed 3× with cold 30 mM TRIS-HCl. The plates are then punched out and the amount of receptor-ligand complex is determined by liquid scintillation counting using 4 ml of Ready Protein Plus™ liquid scintillation cocktail.

| SMILES | Ki (glucocorticoid receptor) | Ki (human MR) |
| --- | --- | --- |
| CCC(CC)(c1ccc([S@+](C)[O-])cc1)c1c[nH]c2c(NS(C)(=O)=O)cccc12 (stereo in doubt) [Example 49, N-{3-[1-Ethyl-1-(4-methanesulfinyl-phenyl)-propyl]-1H-indol-7-yl}-methanesulfonamide] | < 500 nM | < 500 nM |
| CCS(=O)(=O)Nc1cccc2c([C@](C)(c3ccc(F)cc3F)C3CC3)c[nH]c12 (stereo in doubt) [Example 126, Ethanesulfonic acid {3-[1-cyclopropyl-1-(2,4-difluoro-phenyl)-ethyl]-1H-indol-7-yl}-amide] |  | < 500 nM |
| CCCC(C)(c1ccc(C)cc1)c1c[nH]c2c(NS(C)(=O)=O)cccc12 (stereo not drawn) [Example 1, N-[3-(1-Methyl-1-p-tolyl-butyl)-1H-indol-7-yl]methane sulfonamide] | < 500 nM | < 500 nM |
| CCC(CC)(c1cc2ccccc2o1)c1c[nH]c2c(NS(C)(=O)=O)cccc12 [Example 2, N-[3-(1-Benzofuran-2-yl-1-ethyl-propyl)-1H-indol-7-yl]-methanesulfonamide] | < 500 nM | < 500 nM |
| CCC(CC)(c1ccc2c(c1)CCO2)c1c[nH]c2c(NS(C)(=O)=O)cccc12 [Example 3, N-{3-[1-(2,3-Dihydro-benzofuran-5-yl)-1-ethyl-propyl]-1H-indol-7-yl}-methanesulfonamide] | < 500 nM | < 500 nM |
| CCC(CC)(c1cc2cccc(OC)c2o1)c1c[nH]c2c(NS(C)(=O)=O)cccc12 [Example 4, N-{3-[1-Ethyl-1-(7-methoxy-benzofuran-2-yl)-propyl]-1H-indol-7-yl}-methanesulfonamide] | < 500 nM | < 500 nM |
| CC(C)(c1ccccc1-c1ccccc1)c1c[nH]c2c(NS(C)(=O)=O)cccc12 [Example 34, N-[3-(1-Biphenyl-2-yl-1-methyl-ethyl)-1H-indol-7-yl]-methanesulfonamide] |  | < 500 nM |
| CCC(COC)(c1ccccc1)c1c[nH]c2c(NS(C)(=O)=O)cccc12 (stereo not drawn) [Example 74, N-[3-(1-Methoxymethyl-1-phenyl-propyl)-1H-indol-7-yl]-methanesulfonamide] |  | < 500 nM |
| COc1ccc(C(C)(c2c[nH]c3c(NS(C)(=O)=O)cccc23)C2CC2)cc1F (stereo not drawn) [Example 123] |  | < 500 nM |
| COc1cc(C(C)(c2c[nH]c3c(NS(C)(=O)=O)cccc23)C2CC2)ccc1Cl (stereo not drawn) [Example 124, N-{3-[1-(4-Chloro-3-methoxy-phenyl)-1-cyclopropyl-ethyl]-1H-indol-7-yl}-methanesulfonamide] |  | < 500 nM |
| COc1cc(C(C)(c2c[nH]c3c(NS(C)(=O)=O)cccc23)C2CC2)ccc1F (stereo not drawn) [Example 125, N-{3-[1-Cyclopropyl-1-(4-fluoro-3-methoxy-phenyl)-ethyl]-1H-indol-7-yl}-methanesulfonamide] |  | < 500 nM |
| CC(c1ccc(F)cc1)(c1c[nH]c2c(NS(C)(=O)=O)cccc12)C1CCC1 (stereo not drawn) [Example 127, N-{3-[1-Cyclobutyl-1-(4-fluoro-phenyl)-ethyl]-1H-indol-7-yl}-methanesulfonamide] |  | < 500 nM |
| CCC(CC)(c1ccc2c(c1)OCCO2)c1c[nH]c2c(NS(C)(=O)=O)cccc12 [Example 128, N-{3-[1-(2,3-Dihydro-benzo[1,4]dioxin-6-yl)-1-ethyl-propyl]-1H-indol-7-yl}-methanesulfonamide] |  | < 500 nM |
| CC(c1ccc2c(c1)OCCO2)(c1c[nH]c2c(NS(C)(=O)=O)cccc12)C1CC1 (stereo not drawn) [Example 129, N-{3-[1-Cyclopropyl-1-(2,3-dihydro-benzo[1,4]dioxin-6-yl)-ethyl]-1H-indol-7-yl}-methanesulfonamide] |  | < 500 nM |
| CC(c1ccc2c(c1)OCO2)(c1c[nH]c2c(NS(C)(=O)=O)cccc12)C1CC1 (stereo not drawn) [Example 131, N-[3-(1-Benzo[1,3]dioxol-5-yl-1-cyclopropyl-ethyl)-1H-indol-7-yl]-methanesulfonamide] |  | < 500 nM |
| CCC(CC)(c1ccc2c(c1)OCCO2)c1c[nH]c2c(NS(=O)(=O)CC)cccc12 [Example 133, N-{3-[1-(2,3-Dihydro-benzo[1,4]dioxin-6-yl)-1-ethyl-propyl]-1H-indol-7-yl}-ethanesulfonamide] |  | < 500 nM |
| CCC(CC)(c1ccc2ccn(C(C)=O)c2c1)c1c[nH]c2c(NS(C)(=O)=O)cccc12 [Example 183] |  | < 500 nM |
| CCC(CC)(c1cccc2oc(C)cc12)c1c[nH]c2c(NS(C)(=O)=O)cccc12 [Example 184] |  | < 500 nM |
| CCC(CC)(c1ccc2cc(C)oc2c1)c1c[nH]c2c(NS(C)(=O)=O)cccc12 [Example 188] |  | < 500 nM |
| C[C@](c1ccc2c(c1)OCCO2)(c1c[nH]c2c(NS(C)(=O)=O)cccc12)C1CC1 [Example 194] |  | < 500 nM |
| CCC(CC)(c1ccc2sc(NC(C)=O)nc2c1)c1c[nH]c2c(NS(C)(=O)=O)cccc12 [Example 196] |  | < 500 nM |
| CCC(CC)(c1ccc2c(c1)nc(C)n2C)c1c[nH]c2c(NS(C)(=O)=O)cccc12 [Example 198] |  | < 500 nM |
